In paper PMC6592956, “Characterization of Porcine Hepatic and Intestinal Drug Metabolizing CYP450: Comparison with Human Orthologues from A Quantitative, Activity and Selectivity Perspective” (Scientific Reports, 2019):
Marks after values point to notes of the source that are not given here.

Key:
[1] = system: porcine intestinal CYP450 enzymes; settings: duodenum, jejunum, ileum
Protocol: (§2) Intestinal microsomes were incubated as described above for hepatic microsomes. […] Each activity measurement (hepatic and intestinal) was performed in triplicate and data are present [...

porcine CYP450 = settings: outcome of general decision tree, Figure 4
[2] = system: hepatic CYP450 abundancies; assay: Pearson correlation between hepatic CYP450 abundancies and probe activities
[3] = system: porcine intestinal CYP450 enzymes; assay: in vitro; settings: pig, Duodenum Km, duodenal microsomes, pool of 16 pigs, n=3; mean (SD)
Protocol: as §2

CYP2E = assay: Incubation with inhibitors: CZ-hydroxylation in porcine hepatic microsomes; assay type: in vitro ADME, conventional pig
Protocol: (§1) The inhibitors used were α-NFV, 8-MPS, KET, SFZ, QND, and DDC for CYP1A/2 A, CYP2A, CYP3A, CYP2C, CYP2D, and CYP2E1, respectively. […] All incubations were performed in triplicate.

CYP2A = assay: Incubation with inhibitors: CM-hydroxylation in porcine hepatic microsomes; assay type: in vitro ADME, conventional pig
Protocol: as §1

CYP3A = assay: Incubation with inhibitors: MDZ-hydroxylation in porcine hepatic microsomes; assay type: in vitro ADME, conventional pig; settings: MDZ 20 µM; inhibitors SFZ 0.5, α-NFV 0.1 (1 µM), QND 0.1, KET 0.3, DDC 20, 8-MPS 1 µM; mean (SD) of 3
Protocol: as §1

CYP1A = assay: Incubation with inhibitors: PH-O-deethylation in porcine hepatic microsomes; assay type: in vitro ADME, conventional pig
Protocol: as §1

CYP2D = target: T1, CYP2D (Sus scrofa, UniProt O46658); assay: Incubation with inhibitors: DXM-O-demethylation in porcine hepatic microsomes; assay type: in vitro ADME, conventional pig; settings: DXM 10 µM; inhibitors SFZ 0.5, α-NFV 0.1 (1 µM), QND 0.1, KET 0.3, DDC 20, 8-MPS 1 µM; mean (SD) of 3
T1 construct: from tissue; host or cells: pig liver microsomes
T1 sequence (O46658 1-500): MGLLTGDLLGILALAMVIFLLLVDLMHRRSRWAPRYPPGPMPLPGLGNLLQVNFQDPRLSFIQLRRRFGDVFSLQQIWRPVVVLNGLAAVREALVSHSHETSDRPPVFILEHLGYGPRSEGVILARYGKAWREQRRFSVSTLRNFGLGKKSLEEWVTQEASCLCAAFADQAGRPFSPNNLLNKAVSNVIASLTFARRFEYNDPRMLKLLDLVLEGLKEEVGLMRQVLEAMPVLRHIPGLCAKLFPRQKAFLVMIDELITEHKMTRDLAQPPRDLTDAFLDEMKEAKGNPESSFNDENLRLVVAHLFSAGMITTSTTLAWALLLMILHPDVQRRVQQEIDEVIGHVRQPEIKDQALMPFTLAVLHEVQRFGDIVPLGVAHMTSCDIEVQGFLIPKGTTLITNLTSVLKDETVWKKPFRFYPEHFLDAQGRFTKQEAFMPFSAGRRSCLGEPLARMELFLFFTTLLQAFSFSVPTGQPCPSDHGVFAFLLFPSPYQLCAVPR
Protocol: as §1

CYP2C = settings: TB 200 µM; inhibitors SFZ 0.5, α-NFV 0.1 (1 µM), QND 0.1, KET 0.3, DDC 20, 8-MPS 1 µM; mean (SD) of 3
Protocol: To assess the selectivity of the probes, incubation with human specific CYP450 inhibitors was performed. […] All incubations were performed in triplicate. Fourth, typical inhibitors for each of the reactions were included at previously reported Ki values[43],[64].

## O=c1ccc2ccccc2o1 [CM, coumarin]
[1]
  CM-hydroxylase activity in the intestine: No CM-hydroxylase activity could be detected
Porcine CYP450
  Enzyme involvement: High affinity: CYP2A19
[2]; level 3 (CM 2.00 µM)
  Pearson's correlation coefficient, CM activity vs hepatic CYP2A19 abundance: 0.62
[2]; level 4 (CM 5.00 µM)
  Pearson's correlation coefficient, CM activity vs hepatic CYP2A19 abundance: 0.66*
[2]; level 5 (CM 20.0 µM)
  Pearson's correlation coefficient, CM activity vs hepatic CYP2A19 abundance: 0.67*
[2]; level 6 (CM 100 µM)
  Pearson's correlation coefficient, CM activity vs hepatic CYP2A19 abundance: 0.66*

## COc1ccc2c(c1)[C@]13CCCC[C@@H]1[C@H](C2)N(C)CC3 [DXM, Dextromethorphan]
Porcine CYP450
  Enzyme involvement: High affinity: CYP2D25
  Enzyme involvement: Low affinity: CYP3A
[3]
  Km at 10 min: 31.5 µM
[2]; level 1 (DXM 0.10 µM)
  Pearson's correlation coefficient, DXM activity vs hepatic CYP2C33 abundance: 0.59
  Pearson's correlation coefficient, DXM activity vs hepatic CYP2E1 abundance: 0.55
  Pearson's correlation coefficient, DXM activity vs hepatic CYP3A46 abundance: 0.59
[2]; level 2 (DXM 0.50 µM)
  Pearson's correlation coefficient, DXM activity vs hepatic CYP2C33 abundance: 0.65*
  Pearson's correlation coefficient, DXM activity vs hepatic CYP2D25 abundance: 0.55
  Pearson's correlation coefficient, DXM activity vs hepatic CYP2E1 abundance: 0.57
  Pearson's correlation coefficient, DXM activity vs hepatic CYP3A29 abundance: 0.52
  Pearson's correlation coefficient, DXM activity vs hepatic CYP3A46 abundance: 0.65*
[2]; level 3 (DXM 1.00 µM)
  Pearson's correlation coefficient, DXM activity vs hepatic CYP1A2 abundance: 0.54
  Pearson's correlation coefficient, DXM activity vs hepatic CYP2C33 abundance: 0.65*
  Pearson's correlation coefficient, DXM activity vs hepatic CYP2D25 abundance: 0.57
  Pearson's correlation coefficient, DXM activity vs hepatic CYP2E1 abundance: 0.60
  Pearson's correlation coefficient, DXM activity vs hepatic CYP3A29 abundance: 0.56
  Pearson's correlation coefficient, DXM activity vs hepatic CYP3A46 abundance: 0.73*
[2]; level 4 (DXM 5.00 µM)
  Pearson's correlation coefficient, DXM activity vs hepatic CYP1A2 abundance: 0.56
  Pearson's correlation coefficient, DXM activity vs hepatic CYP2C33 abundance: 0.70*
  Pearson's correlation coefficient, DXM activity vs hepatic CYP2D25 abundance: 0.63*
  Pearson's correlation coefficient, DXM activity vs hepatic CYP2E1 abundance: 0.56
  Pearson's correlation coefficient, DXM activity vs hepatic CYP3A29 abundance: 0.58
  Pearson's correlation coefficient, DXM activity vs hepatic CYP3A46 abundance: 0.78*
[2]; level 5 (DXM 20.0 µM)
  Pearson's correlation coefficient, DXM activity vs hepatic CYP1A2 abundance: 0.55
  Pearson's correlation coefficient, DXM activity vs hepatic CYP2C33 abundance: 0.70*
  Pearson's correlation coefficient, DXM activity vs hepatic CYP2D25 abundance: 0.63*
  Pearson's correlation coefficient, DXM activity vs hepatic CYP2E1 abundance: 0.52
  Pearson's correlation coefficient, DXM activity vs hepatic CYP3A29 abundance: 0.58
  Pearson's correlation coefficient, DXM activity vs hepatic CYP3A46 abundance: 0.75*
[2]; level 6 (DXM 100 µM)
  Pearson's correlation coefficient, DXM activity vs hepatic CYP1A2 abundance: 0.54
  Pearson's correlation coefficient, DXM activity vs hepatic CYP2C33 abundance: 0.67*
  Pearson's correlation coefficient, DXM activity vs hepatic CYP2D25 abundance: 0.66*
  Pearson's correlation coefficient, DXM activity vs hepatic CYP2E1 abundance: 0.54
  Pearson's correlation coefficient, DXM activity vs hepatic CYP3A29 abundance: 0.59
  Pearson's correlation coefficient, DXM activity vs hepatic CYP3A46 abundance: 0.74*
[2]; range over concentration levels
  Correlation (r) of CYP2D25 with DXM-O-demethylation: 0.55–0.66

## O=c1cc(-c2ccccc2)oc2c1ccc1ccccc12 [α-naphthoflavone]
CYP2E; CZ 50 µM, inhibitors SFZ 0.5, α-NFV 0.1 (1 µM), QND 0.1, KET 0.3, DDC 20, 8-MPS 1 µM, mean (SD) of 3
  Ratio of residual activity (substrate + inhibitor versus substrate only), CYP2E CZ: 1.06 (0.057)
CYP2E; porcine hepatic microsomes
  Inhibition of CZ-hydroxylation by inhibitor: did not inhibit
CYP2A; CM 1 µM, inhibitors SFZ 0.5, α-NFV 0.1 (1 µM), QND 0.1, KET 0.3, DDC 20, 8-MPS 1 µM, mean (SD) of 3
  Ratio of residual activity (substrate + inhibitor versus substrate only), CYP2A CM: 0.94 (0.131)
CYP2A; pig, porcine hepatic microsomes, probe coumarin 1 µM (CM-hydroxylation), inhibitor 1 µM, read-out: Maximal inhibition of other reactions (CM)
  inhibition at 1 µM: 4%
CYP2A; porcine hepatic microsomes
  Inhibition of CM-hydroxylation by inhibitor: 5%
CYP3A
  Ratio of residual activity (substrate + inhibitor versus substrate only), CYP3A MDZ: 1.08 (0.048)
CYP1A; PH 20 µM, inhibitors SFZ 0.5, α-NFV 0.1 (1 µM), QND 0.1, KET 0.3, DDC 20, 8-MPS 1 µM, mean (SD) of 3
  Ratio of residual activity (substrate + inhibitor versus substrate only), CYP1A PH: 0.76 (0.011)
CYP1A; inhibitor increased to 1 µM
  PH-O-deethylation (CYP1A2) activity, % of the control value: 76%
CYP1A; pig, probe phenacetin 20 µM (PH-O-deethylation), porcine hepatic microsomes, read-out: Inhibition of PH-O-deethylation by inhibitor
  inhibition at 0.1 µM: 24%
CYP2D
  Ratio of residual activity (substrate + inhibitor versus substrate only), CYP2D DXM: 1.02 (0.143)
CYP2C
  Ratio of residual activity (substrate + inhibitor versus substrate only), CYP2C TB: 1.13 (0.099)

B1: CYP2D25 (protein, UniProt O46658 2-500, looked up)
Vitamin D(3) 25-hydroxylase: GLLTGDLLGILALAMVIFLLLVDLMHRRSRWAPRYPPGPMPLPGLGNLLQVNFQDPRLSFIQLRRRFGDVFSLQQIWRPVVVLNGLAAVREALVSHSHETSDRPPVFILEHLGYGPRSEGVILARYGKAWREQRRFSVSTLRNFGLGKKSLEEWVTQEASCLCAAFADQAGRPFSPNNLLNKAVSNVIASLTFARRFEYNDPRMLKLLDLVLEGLKEEVGLMRQVLEAMPVLRHIPGLCAKLFPRQKAFLVMIDELITEHKMTRDLAQPPRDLTDAFLDEMKEAKGNPESSFNDENLRLVVAHLFSAGMITTSTTLAWALLLMILHPDVQRRVQQEIDEVIGHVRQPEIKDQALMPFTLAVLHEVQRFGDIVPLGVAHMTSCDIEVQGFLIPKGTTLITNLTSVLKDETVWKKPFRFYPEHFLDAQGRFTKQEAFMPFSAGRRSCLGEPLARMELFLFFTTLLQAFSFSVPTGQPCPSDHGVFAFLLFPSPYQLCAVPR
Hepatic CYP450
  log abundance, Mean Difference (t-test for Equality of Means): ,05407
  log abundance, Sig. (2-tailed): ,497

B2: CYP3A29 (protein, UniProt P79401 1-503, looked up)
Cytochrome P450 3A29: MDLIPGFSTETWVLLATSLVLLYLYGTYSHGLFKKLGIPGPRPLPYFGNILGYRKGVDHFDKKCFQQYGKMWGVYDGRQPLLAVTDPNMIKSVLVKECYSVFTNRRSFGPLGAMRNALSLAEDEEWKRIRTLLSPTFTSGKLKEMFPIISHYGDLLVSNLRKEAEKGKPVTMKDIFGAYSMDVITSTAFGVNIDSLNNPQDPFVENSKKLLKFSFFDPFLLSLIFFPFLTPIFEVLNITLFPKSSVNFFTKSVKRMKESRLTDQQKRRVDLLQLMINSQNSKEMDPHKSLSNEELVAQGIIFIFAGYETTSSALSLLAYELATHPDVQQKLQEEIEATFPNKAPPTYDALAQMEYLDMVVNETLRLYPIAARLERACKKDVEIHGVFVPKGTVVVVPVFVLHRDPDLWPEPEEFRPERFSKKHKDTINPYTYLPFGTGPRNCIGMRFALMNMKLALVRVLQNFSFKPCKETQIPLKLTTQGLTQPEKPVVLKILPRDGTVSGA
Hepatic CYP450
  Amount: 4.74 pmol/mg protein
